pIC50: −log10 of the molar value.
What follows are compounds tested on XBP-1 splicing in ARPE-19 cells or apoptosis of INS-1 cells expressing mIRE-1 (assay: Cellular assay (XBP1 splicing assay or apoptosis assay)). Details: data are for the XBP1 splicing assay or the apoptosis assay (not specified per compound).
Type: cell-based
Description: ARPE-19 cells stably expressing XBP-1 (a.a. 1-376) with nano-luciferase gene sequence linked so it is in frame when XBP-1 is spliced, were cultured in F12 media, 10% FBS, 0.044% sodium bicarbonate, 150 μg/ml hygromycin B and seeded for assays at 5,000 cells in 384 well plates in culture media without hygromycin B and incubated at 37° C./5% CO2. […] After further incubation of 30 minutes thapsigargin was added (final concentration 150 nM) and then another 4 hour incubation. A NanoLuc luciferase assay (Promega) was used according to the manufacturer's instructions to detect the luciferase and luminescence measured on a luminometer (EnVision, PerkinElmer).
Doxycycline (final concentration 100 nM) was added and plates incubated for a further 72 hours. To determine the proportion of apoptotic cells Hoechst 33342 (final concentration 10 μg/mL) was added, then after 30 minutes incubation cells imaged and analyzed on an InCell high content imager.

| Structure (SMILES) | pIC50 |
| --- | --- |
| CNC1CC=C(c2cnc(N)c3c(-c4cccc5c(NC(=O)Nc6cccc(F)c6)cccc45)nc(C(C)C)n23)CC1 (centres unmarked) [Example 123, 1-(5-(8-amino-3-isopropyl-5-(4-(methylamino)cyclohex-1-en-1-yl)imidazo[1,5-a]pyrazin-1-yl)naphthalen-1-yl)-3-(3-fluorophenyl)urea] | 6.64 |
| CC(C)c1nc(-c2ccc(NS(=O)(=O)c3ccccc3Cl)c(F)c2)c2c(N)ncc(C3=CCC(N(C)CCF)CC3)n12 (centres unmarked) [Example 230, N-(4-(8-amino-5-(4-((2-fluoroethyl)(methyl)amino)cyclohex-1-en-1-yl)-3-isopropylimidazo[1,5-a]pyrazin-1-yl)-2-fluorophenyl)-2-chlorobenzenesulfonamide] | 7.72 |
| CNC1CC=C(c2cnc(N)c3c(-c4ccc(NS(=O)(=O)c5cc(C)ccc5Cl)c5ccccc45)nc(C(C)C)n23)CC1 (centres unmarked) [Example 219, N-(4-{8-amino-5-[4-(methylamino)cyclohex-1-en-1-yl]-3-(propan-2-yl)imidazo[1,5-a]pyrazin-1-yl}naphthalen-1-yl)-2-chloro-5-methylbenzene-1-sulfonamide] | 7.70 |
| CC(C)c1nc(-c2ccc(NS(=O)(=O)Cc3ccccc3Cl)c(F)c2)c2c(N)ncc(C3=CCC(NC4COC4)CC3)n12 (centres unmarked) [Example 227, N-(4-(8-amino-3-isopropyl-5-(4-(oxetan-3-ylamino)cyclohex-1-en-1-yl)imidazo[1,5-a]pyrazin-1-yl)-2-fluorophenyl)-1-(2-chlorophenyl)methanesulfonamide] | 7.06 |
| CNC1CC=C(c2cnc(N)c3c(-c4cccc5c(NC(=O)Nc6cccc(C(F)(F)F)c6)cccc45)nc(C(C)C)n23)CC1 (centres unmarked) [Example 124, 1-(5-(8-amino-3-isopropyl-5-(4-(methylamino)cyclohex-1-en-1-yl)imidazo[1,5-a]pyrazin-1-yl)naphthalen-1-yl)-3-(3-(trifluoromethyl)phenyl)urea] | 6.37 |
| CNC1CC=C(c2cnc(N)c3c(-c4ccc(NC(=O)Nc5ccccc5)cc4F)nc(C(C)C)n23)CC1 (centres unmarked) [Example 130, 1-(4-(8-amino-3-isopropyl-5-(4-(methylamino)cyclohex-1-en-1-yl)imidazo[1,5-a]pyrazin-1-yl)-3-fluorophenyl)-3-phenylurea] | 6.39 |
| CNC1CC=C(c2cnc(N)c3c(-c4ccc(NC(=O)NCc5ccccc5)c5ccccc45)nc(C(C)C)n23)CC1 (centres unmarked) [Example 139, 1-(4-(8-amino-3-isopropyl-5-(4-(methylamino)cyclohex-1-en-1-yl)imidazo[1,5-a]pyrazin-1-yl)naphthalen-1-yl)-3-benzylurea] | 6.42 |
| CNC1CC=C(c2cnc(N)c3c(-c4ccc(NC(=O)Nc5cccc(F)c5)cc4F)nc(C(C)C)n23)CC1 (centres unmarked) [Example 129, 1-(4-(8-amino-3-isopropyl-5-(4-(methylamino)cyclohex-1-en-1-yl)imidazo[1,5-a]pyrazin-1-yl)-3-fluorophenyl)-3-(3-fluorophenyl)urea] | 6.55 |
| CNC1CC=C(c2cnc(N)c3c(-c4ccc(CC(=O)Nc5cccc(OC)c5)c5ccccc45)nc(C(C)C)n23)CC1 (centres unmarked) [Example 71, 2-(4-(8-amino-3-isopropyl-5-(4-(methylamino)cyclohex-1-en-1-yl)imidazo[1,5-a]pyrazin-1-yl)naphthalen-1-yl)-N-(3-methoxyphenyl)acetamide] | 7.21 |
| CNC1CC=C(c2cnc(N)c3c(-c4ccc(NC(=O)Nc5ccc6c(c5)OCCO6)c5ccccc45)nc(C(C)C)n23)CC1 (centres unmarked) [Example 140, 1-(4-(8-amino-3-isopropyl-5-(4-(methylamino)cyclohex-1-en-1-yl)imidazo[1,5-a]pyrazin-1-yl)naphthalen-1-yl)-3-(2,3-dihydrobenzo[b][1,4]dioxin-6-yl)urea] | 7.11 |
| Cc1nc(-c2ccc(NC(=O)Nc3cccc(C(F)(F)F)c3)c3ccccc23)c2c(N)ncc(C3CCCNC3)n12 (centres unmarked) [Example 40, 3-{4-[8-amino-3-methyl-5-(piperidin-3-yl)imidazo[1,5-a]pyrazin-1-yl]naphthalen-1-yl}-1-[3-(trifluoromethyl)phenyl]urea] | 6.55 |
| CNC1CC=C(c2cnc(N)c3c(-c4ccc(NC(=O)Nc5ccncc5)c5ccccc45)nc(C(C)C)n23)CC1 (centres unmarked) [Example 144, 1-(4-(8-amino-3-isopropyl-5-(4-(methylamino)cyclohex-1-en-1-yl)imidazo[1,5-a]pyrazin-1-yl)naphthalen-1-yl)-3-(pyridin-4-yl)urea] | 6.31 |
| Cc1nc(-c2ccc(NS(=O)(=O)c3ccccc3Cl)c(F)c2)c2c(N)ncc(C3=CCC(NCCF)CC3)n12 (centres unmarked) [Example 231, N-(4-(8-amino-5-(4-((2-fluoroethyl)amino)cyclohex-1-en-1-yl)-3-methylimidazo[1,5-a]pyrazin-1-yl)-2-fluorophenyl)-2-chlorobenzenesulfonamide] | 7.72 |
| CNC1CC=C(c2cnc(N)c3c(-c4ccc(NC(=O)Nc5cc(F)cc(OC)c5)cc4F)nc(C(C)C)n23)CC1 (centres unmarked) [Example 146, 1-(4-(8-amino-3-isopropyl-5-(4-(methylamino)cyclohex-1-en-1-yl)imidazo[1,5-a]pyrazin-1-yl)-3-fluorophenyl)-3-(3-fluoro-5-methoxyphenyl)urea] | 6.62 |
| CNC1CC=C(c2cnc(N)c3c(-c4ccc(CC(=O)Nc5cc(F)cc(C#N)c5)c5ccccc45)nc(C(C)C)n23)CC1 (centres unmarked) [Example 67, 2-(4-(8-amino-3-isopropyl-5-(4-(methylamino)cyclohex-1-en-1-yl)imidazo[1,5-a]pyrazin-1-yl)naphthalen-1-yl)-N-(3-cyano-5-fluorophenyl)acetamide] | 6.68 |
| CNC1CC=C(c2cnc(N)c3c(-c4ccc(Cc5ncc(-c6ccccc6)[nH]5)c5ccccc45)nc(C(C)C)n23)CC1 (centres unmarked) [Example 168, 3-Isopropyl-5-(4-(methylamino)cyclohex-1-en-1-yl)-1-(4-((5-phenyl-1H-imidazol-2-yl)methyl)naphthalen-1-yl)imidazo[1,5-a]pyrazin-8-amine] | 7.02 |
| CC(C)c1nc(-c2ccc(NS(=O)(=O)Cc3ccccc3Cl)c(F)c2)c2c(N)ncc(C3=CCC(O)CC3)n12 (centres unmarked) [Example 224, N-(4-(8-amino-5-(4-hydroxycyclohex-1-en-1-yl)-3-isopropylimidazo[1,5-a]pyrazin-1-yl)-2-fluorophenyl)-1-(2-chlorophenyl)methanesulfonamide] | 7.38 |
| CNC1CC=C(c2cnc(N)c3c(-c4ccc(NC(=O)Nc5ccsc5)c5ccccc45)nc(C(C)C)n23)CC1 (centres unmarked) [Example 150, 1-(4-(8-amino-3-isopropyl-5-(4-(methylamino)cyclohex-1-en-1-yl)imidazo[1,5-a]pyrazin-1-yl)naphthalen-1-yl)-3-(thiophen-3-yl)urea] | 7.05 |
| CC(C)c1nc(-c2ccc(NS(=O)(=O)Cc3ccccc3Cl)c(F)c2)c2c(N)ncc(C3=CCC(NCCF)CC3)n12 (centres unmarked) [Example 220, N-(4-(8-amino-5-(4-((2-fluoroethyl)amino)cyclohex-1-en-1-yl)-3-isopropylimidazo[1,5-a]pyrazin-1-yl)-2-fluorophenyl)-1-(2-chlorophenyl) methanesulfonamide] | 7.30 |
| CNC1CC=C(c2cnc(N)c3c(-c4ccc(CC(=O)Nc5cccc(C#N)c5)c5ccccc45)nc(C(C)C)n23)CC1 (centres unmarked) [Example 70, 2-(4-(8-amino-3-isopropyl-5-(4-(methylamino)cyclohex-1-en-1-yl)imidazo[1,5-a]pyrazin-1-yl)naphthalen-1-yl)-N-(3-cyanophenyl)acetamide] | 6.85 |
